Results published in patent US20120277296A1, “Selective CB2 Receptor Agonists for Use in the Prevention or Treatment of Alcoholic Liver Disease” (priority 2009, published 2012).
Entries after “also recorded” stand apart in the source; their conditions may differ.

Legend:
[1] = test system: WT mice fed EtOH (EtOH-induced hepatic steatosis); experiment: Chronic ethanol feeding model (modified Lieber-De Carli diet, 10 days): hepatic steatosis; format: in vivo, mouse; details: JWH-133 3 mg/kg daily intraperitoneal during 10 day ethanol feeding, vs. vehicle
Procedure: (§1) Animals. Female mice (8-10 week old) were used for the experiments and included wild type (WT) C57B1/6J mice (Janvier, France) and mice with a targeted mutation of the Cnr2 gene (Buckley et al. 2000). Homozygous Cnr2−/− animals were obtained from heterozygous Cnr2+/− mice that were backcrossed with WT C57Bl/6J animals over 10 generations, and further intercrossed to obtain homozygous animals. Genotyping was performed on tail genomic DNA using QuantiTect™ SYBR® Green PCR kit (Qiagen). Animals were housed in temperature and humidity controlled rooms, kept on a 12-h light/dark cycle and provided unrestricted amounts of food and water. Animal procedures were conducted in accordance with French government policies (Services Vétérinaires de la Santé et de la Production Animale, Ministère de l'Agriculture).
(§2) Chronic exposure to ethanol. […] Body weight and food intake were measured daily.
(§3) The impact of the CB2 agonist JWH-133 or its vehicle was evaluated in WT mice that were treated with a daily intraperitoneal injection of JWH-133 (3 mg/kg) or its vehicle during the 10 day feeding with ethanol. […] Body weight and food intake were measured daily. […]
Hepatic triglyceride quantification. […] Triglycerides were quantified with a triglyceride determination kit (Sigma), on liver samples from 10-15 animals per group.

TNF-α mRNA expression = experiment: Chronic ethanol feeding model: hepatic inflammation, TNF-α mRNA expression by RT-PCR; format: in vivo, mouse; details: WT mice fed EtOH, JWH-133 3 mg/kg daily intraperitoneal during 10 day ethanol feeding, vs. vehicle
Procedure: as §1, with “Animal procedures were conducted in accordance with French government policies (Services Vétérinaires de la Santé et de la Production Animale, Ministère de l'Agriculture).” left out
as §2, §3
RNA preparation and RT-PCR. […] Quantitative real time-PCR was carried out on a Light Cycler (Roche Diagnostics), as previously described (Julien et al. 2005). Oligonucleotide primers (MWG Biotech) for the following mouse genes were used: mouse Rn18S; mouse Tnf, PCR amplified products were analyzed on a 2% agarose gel and sequenced.

## CCCC(C)(C)c1ccc2c(c1)OC(C)(C)[C@@H]1CC=C(C)C[C@@H]21 [JWH-133, (6aR,10aR)-3-(1,1-dimethylbutyl)-6a,7,10,10a-tetrahydro-6,6,9-trimethyl-6Hdibenzo[b,d]pyran]
[1]
  hepatic triglyceride content: decrease; also recorded: strongly reduced
  liver/body weight ratio: decrease; also recorded: strongly reduced
TNF-α mRNA expression
  TNF-α mRNA expression in liver: prevents the increase; also recorded: reduced TNF-α mRNA levels to control levels
